The values below come from US20230083973A1, “SUBSTITUTED CYCLOPROPYL-2,2'-BIP[…], ANALOGUES THEREOF, AND METHODS USING SAME” (priority 2019, published 2023).

The test has as its system HBsAg. In words: HBsAg assay: inhibition of HBsAg in HepG2.2.15 cells (chemiluminescence immunoassay of supernatant). It counts as cell-based, hepatitis B virus. The note with it: Hepatitis B virus, HepG2.2.15, 144 h, read-out: sAg EC50, HepG2.2.15 cells; HBsAg in supernatant at day 6 after exposure to compound; 0.5% DMSO. The procedure:
Inhibition of HBsAg was determined in HepG2.2.15 cells. Cells were maintained in culture medium containing 10% fetal calf serum, […], Glutamine, penicillin/streptomycin. Cells were seeded in 96-well collagen-coated plate at a density of 30,000 cells/well. Serially diluted compounds were added to cells next day at the final DMSO concentration of 0.5%. Cells were incubated with compounds for 2-3 days, after which medium was removed. Fresh medium containing compounds was added to cells for additional 3-4 days. At day 6 after exposure of compounds, supernatant was collected, the HBsAg immunoassay (microplate-based chemiluminescence immunoassay kits, CLIA, Autobio Diagnosics Co., Zhengzhou, China, Catalog # CL0310-2) was used to determine the level of HBsAg according to manufactory instruction. Dose-response curves were generated and the EC50 value (effective concentrations that achieved 50% inhibitory effect) were determined using XLfit software. In addition, cells were seeded at a density of 5,000 cells/well for determination of cell viability in the presence and absence of compounds by using CellTiter-Glo reagent (Promega).
Table 1 illustrates EC50 values obtained by the HBsAg assay for selected compounds.
By EC50 is commonly meant the concentration needed to bring the measured effect to its halfway point. In the case of `CC(C)OC1CN(c2cc([C@@H]3C[C@H]3c3cnc(-c4ncccn4)nc3)cc(F)c2F)C1` (relative stereo) [Example 210, trans-5-(2-(3,4-Difluoro-5-(3-isopropoxyazetidin-1-yl)phenyl)cyclopropyl)-2,2′-bipyrimidine], the EC50 turned out to be 55 nM. Under `CC(C)(C)S(=O)(=O)C1CN(c2cc([C@@H]3C[C@H]3c3cnc(-c4ncccn4)nc3)cc(F)c2F)C1` (relative stereo) [Example 211, trans-5-(2-(3-(3-(tert-Butylsulfonyl)azetidin-1-yl)-4,5-difluorophenyl)cyclopropyl)-2,2′-bipyrimidine] stands 110 nM; under `COCCOC1CN(c2cc([C@@H]3C[C@H]3c3cnc(-c4ncccn4)nc3)cc(F)c2F)C1` (relative stereo) [Example 212, trans-5-(2-(3,4-Difluoro-5-(3-(2-methoxyethoxy)azetidin-1-yl)phenyl)cyclopropyl)-2,2′-bipyrimidine], 30 nM.

`COc1cc(C2CN(c3cc([C@@H]4C[C@H]4c4cnc(-c5ncccn5)nc4)cc(F)c3F)C2)cc(F)c1F` (relative stereo) [Example 213, trans-5-(2-(3-(3-(3,4-Difluoro-5-methoxyphenyl)azetidin-1-yl)-4,5-difluorophenyl)cyclopropyl)-2,2′-bipyrimidine]: the EC50 amounted to 73 nM.

On to `Fc1ccc(C2CN(c3cc([C@@H]4C[C@H]4c4cnc(-c5ncccn5)nc4)cc(F)c3F)C2)cc1F` (relative stereo) [Example 214, trans-5-(2-(3-(3-(3,4-difluorophenyl)azetidin-1-yl)-4,5-difluorophenyl)cyclopropyl)-2,2′-bipyrimidine], for which the EC50 came to 46 nM. Take `COc1cc(C2CN(c3cc([C@@H]4C[C@H]4c4cnc(-c5ncccn5)nc4)cc(F)c3F)C2)ccc1F` (relative stereo) [Example 215, trans-5-(2-(3,4-Difluoro-5-(3-(4-fluoro-3-methoxyphenyl)azetidin-1-yl)phenyl)cyclopropyl)-2,2′-bipyrimidine]: the EC50 turned out to be 70 nM. As to `COc1ccc(C2CN(c3cc([C@@H]4C[C@H]4c4cnc(-c5ncccn5)nc4)cc(F)c3F)C2)cc1OC` (relative stereo) [Example 216, trans-5-(2-(3-(3-(3,4-Dimethoxyphenyl)azetidin-1-yl)-4,5-difluorophenyl)cyclopropyl)-2,2′-bipyrimidine], the EC50 was 25 nM. Consider `Cn1cnc(COc2cc([C@@H]3C[C@H]3c3cnc(-c4ncccn4)nc3)cc(F)c2F)n1` (relative stereo) [Example 217, trans-5-(2-(3,4-Difluoro-5-((1-methyl-1H-1,2,4-triazol-3-yl)methoxy)phenyl)cyclopropyl)-2,2′-bipyrimidine], for which the EC50 was determined as 200 nM. Under `Fc1cc([C@@H]2C[C@H]2c2cnc(-c3ncccn3)nc2)cc(OCc2nccs2)c1F` (relative stereo) [Example 218, trans-2-((5-(2-([2,2′-Bipyrimidin]-5-yl)cyclopropyl)-2,3-difluorophenoxy)methyl)thiazole] stands 57 nM; under `Cn1ccc(COc2cc([C@@H]3C[C@H]3c3cnc(-c4ncccn4)nc3)cc(F)c2F)n1` (relative stereo) [Example 219, trans-5-(2-(3,4-Difluoro-5-((1-methyl-1H-pyrazol-3-yl)methoxy)phenyl)cyclopropyl)-2,2′-bipyrimidine], 96 nM; under `Cc1cnn(-c2cc([C@@H]3C[C@H]3c3cnc(-c4ncccn4)nc3)cc(F)c2F)c1` (relative stereo) [Example 232, trans-5-(2-(3,4-Difluoro-5-(4-methyl-1H-pyrazol-1-yl)phenyl)cyclopropyl)-2,2′-bipyrimidine], 28 nM. Under `CN(c1cc([C@@H]2C[C@H]2c2cnc(-c3ncccn3)nc2)cc(F)c1F)C1COC1` (relative stereo) [Example 233, trans-N-(5-(2-([2,2′-Bipyrimidin]-5-yl)cyclopropyl)-2,3-difluorophenyl)-N-methyloxetan-3-amine] stands 84 nM; under `OCc1cnn(-c2cc([C@@H]3C[C@H]3c3cnc(-c4ncccn4)nc3)cc(F)c2F)c1` (relative stereo) [Example 234, trans-(1-(5-(2-([2,2′-Bipyrimidin]-5-yl)cyclopropyl)-2,3-difluorophenyl)-1H-pyrazol-4-yl)methanol], 140 nM. On to `CO[C@H]1CN(c2cc(C3CC3c3cnc(-c4ncccn4)nc3)cc(F)c2F)C[C@H]1OC` (relative stereo) [Example 235, trans-5-(2-(3-((3R,4S)-3,4-Dimethoxypyrrolidin-1-yl)-4,5-difluorophenyl)cyclopropyl)-2,2′-bipyrimidine], for which the 50% effective concentration (EC50) was 39 nM. The figure for `COCc1cnn(-c2cc([C@@H]3C[C@H]3c3cnc(-c4ncccn4)nc3)cc(F)c2F)c1` (relative stereo) [Example 236, trans-5-(2-(3,4-Difluoro-5-(4-(methoxymethyl)-1H-pyrazol-1-yl)phenyl)cyclopropyl)-2,2′-bipyrimidine] is 78 nM; for `COc1cc2ncn(-c3cc([C@@H]4C[C@H]4c4cnc(-c5ncccn5)nc4)cc(F)c3F)c2cc1OC` (relative stereo) [Example 237, trans-1-(5-(2-([2,2′-Bipyrimidin]-5-yl)cyclopropyl)-2,3-difluorophenyl)-5,6-dimethoxy-1H-benzo [d]imidazole] it is 200 nM; for `OC1CC2(C1)CN(c1cc([C@@H]3C[C@H]3c3cnc(-c4ncccn4)nc3)cc(F)c1F)C2` (relative stereo) [Example 238, trans-2-(5-(2-([2,2′-Bipyrimidin]-5-yl)cyclopropyl)-2,3-difluorophenyl)-2-azaspiro[3.3]heptan-6-ol] it is 53 nM. `O[C@@H]1CN(c2cc(C3CC3c3cnc(-c4ncccn4)nc3)cc(F)c2F)C[C@H]1O` (relative stereo) [Example 239, trans-(3R,4R)-1-(5-(2-([2,2′-Bipyrimidin]-5-yl)cyclopropyl)-2,3-difluorophenyl)pyrrolidine-3,4-diol]: the concentration for a half-maximal effect (EC50) came to 110 nM. Consider `Fc1cc([C@@H]2C[C@H]2c2cnc(-c3ncccn3)nc2)cc(OCCCN2CCOCC2)c1F` (relative stereo) [Example 240, trans-4-(3-(5-(2-([2,2′-Bipyrimidin]-5-yl)cyclopropyl)-2,3-difluorophenoxy)propyl)morpholine], for which the EC50 came out at 210 nM. The figure for `Fc1cc([C@@H]2C[C@H]2c2cnc(-c3ncccn3)nc2)cc(F)c1OCCCN1CCOCC1` (relative stereo) [Example 241, trans-4-(3-(4-(2-([2,2′-Bipyrimidin]-5-yl)cyclopropyl)-2,6-difluorophenoxy)propyl)morpholine] is 830 nM; for `Fc1cc([C@@H]2C[C@H]2c2cnc(-c3ncccn3)nc2)cc(F)c1OC1CC2(COC2)C1` (relative stereo) [Example 242, trans-5-(2-(4-((2-Oxaspiro[3.3]heptan-6-yl)oxy)-3,5-difluorophenyl)cyclopropyl)-2,2′-bipyrimidine] it is 390 nM; for `Fc1cc([C@@H]2C[C@H]2c2cnc(-c3ncccn3)nc2)cc(OC2CC3(COC3)C2)c1F` (relative stereo) [Example 243, trans-5-(2-(3-((2-Oxaspiro[3.3]heptan-6-yl)oxy)-4,5-difluorophenyl)cyclopropyl)-2,2′-bipyrimidine] it is 110 nM. `CN(CCO)c1cc([C@@H]2C[C@H]2c2cnc(-c3ncccn3)nc2)cc(F)c1F` (relative stereo) [Example 244, trans-2-((5-(2-([2,2′-Bipyrimidin]-5-yl)cyclopropyl)-2,3-difluorophenyl)(methyl)amino)ethan-1-ol]: the concentration for a half-maximal effect (EC50) was 92 nM. The figure for `COCCCn1ncc2c([C@@H]3C[C@H]3c3cnc(-c4ncccn4)nc3)cc(F)c(F)c21` (relative stereo) [Example 264, trans-4-(2-([2,2′-Bipyrimidin]-5-yl)cyclopropyl)-6,7-difluoro-1-(3-methoxypropyl)-1H-indazole] is 4 nM; for `COCCCn1cc2c(F)cc([C@@H]3C[C@H]3c3cnc(-c4ncccn4)nc3)cc2n1` (relative stereo) [Example 267, trans-6-(2-([2,2′-Bipyrimidin]-5-yl)cyclopropyl)-4-fluoro-2-(3-methoxypropyl)-2H-indazole] it is 13 nM. Take `Fc1cc(F)c2nc([C@@H]3C[C@H]3c3cnc(-c4ncccn4)nc3)sc2c1` (relative stereo) [Example 270, trans-2-(2-([2,2′-Bipyrimidin]-5-yl)cyclopropyl)-4,6-difluorobenzo[d]thiazole]: the EC50 was 500 nM. Turning to `Cc1nc2c(F)cc([C@@H]3C[C@H]3c3cnc(-c4ncccn4)nc3)cc2n1C(C)C` (relative stereo) [Example 271, trans-6-(2-([2,2′-Bipyrimidin]-5-yl)cyclopropyl)-4-fluoro-1-isopropyl-2-methyl-1H-benzo[d]imidazole], the EC50 was found to be 250 nM.

Consider `Cc1nc2c(F)cc([C@@H]3C[C@H]3c3cnc(-c4ncccn4)nc3)cc2s1` (relative stereo) [Example 272, trans-6-(2-([2,2′-Bipyrimidin]-5-yl)cyclopropyl)-4-fluoro-2-methylbenzo[d]thiazole], for which the 50% effective concentration (EC50) is 73 nM.

`COCCCn1cnc2cc([C@@H]3C[C@H]3c3cnc(-c4ncccn4)nc3)cc(F)c21` (relative stereo) [Example 273, trans-5-(2-([2,2′-Bipyrimidin]-5-yl)cyclopropyl)-7-fluoro-1-(3-methoxypropyl)-1H-benzo[d]imidazole]: the EC50 turned out to be 43 nM.
